System: human hair follicle dermal papilla cells (hFDPC)
Test: Human follicle dermal papilla cell (hFDPC) proliferation, cell viability assay
Type: cell-based
Details: hFDPCs supplemented with BIO, BMP-2 and FGFβ
Experimental: The ability of a compound or salt of the present disclosure to increase proliferation of human hair follicle dermal papilla cells (hFDPC) was tested using a cell viability assay, such as the Promega CellTiter-Glo® Luminescent Cell Viability Assay, MTT cell proliferation assay (ATCC® 30-1010K) or cell counting. […] In Table 8, A represents less than 20% of increased proliferation of hFDPCs, B represents 20-40%, and C represents larger than 40% of increased proliferation of hFDPCs. For this assay, hFDPCs were cultured on tissue culture-treated plastic and supplemented with 6-bromoindirubin-39-Oxime (BIO), recombinant bone morphogenetic protein-2 (BMP-2), and basic fibroblast growth factor (FGFβ), whose combination was previously found to preserve in situ dermal papilla gene signatures.

Row | SMILES | Percent Increase Proliferation of hFDPCs (%)
1 | COc1ccc(CC(=O)Nc2sc3c(c2C(=O)Nc2cccc([N+](=O)[O-])c2)CCC(C)C3)cc1 (stereo not drawn) [VII-22, Benzo[b]thiophene-3-carboxamide, 4,5,6,7-tetrahydro-2-[[2-(4-methoxyphenyl)acetyl]amino]-6-methyl-N-(3-nitrophenyl)-] | A (A represents less than 20% of increased proliferation of hFDPCs)
2 | C=CCN1C(=O)NC(=O)/C(=C\c2ccc(OC)cc2OC)C1=O [Compound I-6, 2,4,6(1H,3H,5H)-Pyrimidinetrione, 5-[(2,4-dimethoxyphenyl)methylene]-1-(2-propen-1-yl)-] | A (A represents less than 20% of increased proliferation of hFDPCs)
3 | COc1cc(/C=C2\C(=O)NC(=O)N(Cc3ccccc3)C2=O)cc(OC)c1O [Compound I-5, 2,4,6(1H,3H,5H)-Pyrimidinetrione, 5-[(4-hydroxy-3,5-dimethoxyphenyl)methylene]-1-(phenylmethyl)-] | B (B represents 20-40%)
4 | CC(C)(C)Nc1nnc(SCc2cc(=O)oc3cc(O)ccc23)s1 [IV-1, 2H-1-Benzopyran-2-one, 4-[[[5-[(1,1-dimethylethyl)amino]-1,3,4-thiadiazol-2-yl]thio]methyl]-7-hydroxy-] | B (B represents 20-40%)
5 | C=CCc1cc(/C=C2\C(=O)NC(=O)N(c3ccc(C)c(C)c3)C2=O)cc(OC)c1O [Compound I-4, 2,4,6(1H,3H,5H)-Pyrimidinetrione, 1-(3,4-dimethylphenyl)-5-[[4-hydroxy-3-methoxy-5-(2-propen-1-yl)phenyl]methylene]] | A (A represents less than 20% of increased proliferation of hFDPCs)
6 | CN1C(=O)NC(=O)/C(=C/c2cnc(N(C)C)nc2)C1=O [Compound I-13, 2,4,6(1H,3H,5H)-Pyrimidinetrione, 5-[[2-(dimethylamino)-5-pyrimidinyl]methylene]-1-methyl-] | A (A represents less than 20% of increased proliferation of hFDPCs)
7 | O=C1CNCc2[nH]c3ccccc3c2N1c1ccccc1 [VII-10, 1,4-Diazepino[6,5-b] indol-2(1H)-one, 3,4,5,6-tetrahydro-1-phenyl-] | B (B represents 20-40%)
8 | C=CCc1cc(C=C2C(=O)NC(=S)NC2=O)cc(OCC)c1O [Compound I-8, 4,6(1H,5H)-Pyrimidinedione, 5-[[3-ethoxy-4-hydroxy-5-(2-propen-1-yl)phenyl]methylene]dihydro-2-thioxo-] | B (B represents 20-40%)
9 | CCCCN1CCc2cc(/C=C3\C(=O)NC(=O)N(C)C3=O)ccc21 [Compound I-12, 2,4,6(1H,3H,5H)-Pyrimidinetrione, 5-[(1-butyl-2,3-dihydro-1H-indol-5-yl)methylene]-1-methyl-] | B (B represents 20-40%)
10 | O=C(O)CC1SC(NN=Cc2ccc(OS(=O)(=O)c3ccc([N+](=O)[O-])cc3)cc2)=NC1=O (stereo not drawn) [VI-6, 5-Thiazoleacetic acid, 4,5-dihydro-2-[2-[[4-[[(4-nitrophenyl)sulfonyl]oxy]phenyl]methylene] hydrazinyl]-4-oxo-] | A (A represents less than 20% of increased proliferation of hFDPCs)
11 | C=CCc1cc(/C=C2\C(=O)NC(=O)N(c3cc(C)cc(C)c3)C2=O)cc(OC)c1O [Compound I-3, 2,4,6(1H,3H,5H)-Pyrimidinetrione, 1-(3,5-dimethylphenyl)-5-[[4-hydroxy-3-methoxy-5-(2-propen-1-yl)phenyl]methylene]-] | A (A represents less than 20% of increased proliferation of hFDPCs)
12 | C=CCc1cc(/C=C2\C(=O)NC(=O)N(c3cc(C)cc(C)c3)C2=O)cc(OCC)c1O [Compound I-2, 2,4,6(1H,3H,5H)-Pyrimidinetrione, 1-(3,5-dimethylphenyl)-5-[[3-ethoxy-4-hydroxy-5-(2-propen-1-yl)phenyl]methylene]-] | B (B represents 20-40%)

From patent publication US12527794B2, “Compositions, formulations, and methods for hair treatment” (Oddity Labs, LLC, priority 2021, dated 2026)
